Values quoted from earlier work as cited in PMC7190335 (Science Advances, 2020).

Target: T1, COUP-TFII (Homo sapiens, UniProt P24468)
T1 sequence (P24468 1-414): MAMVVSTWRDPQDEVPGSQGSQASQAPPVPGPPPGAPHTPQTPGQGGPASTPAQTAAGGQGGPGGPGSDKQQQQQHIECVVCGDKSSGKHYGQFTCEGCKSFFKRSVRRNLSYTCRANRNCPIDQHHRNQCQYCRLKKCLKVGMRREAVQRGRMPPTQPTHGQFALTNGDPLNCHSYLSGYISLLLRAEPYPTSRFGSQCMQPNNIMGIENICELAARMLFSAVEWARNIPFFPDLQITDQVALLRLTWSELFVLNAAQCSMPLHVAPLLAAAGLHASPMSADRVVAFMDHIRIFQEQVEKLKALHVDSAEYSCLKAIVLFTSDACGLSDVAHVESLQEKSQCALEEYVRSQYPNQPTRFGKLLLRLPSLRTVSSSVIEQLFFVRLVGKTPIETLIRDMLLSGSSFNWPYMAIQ

concentration needed to reduce COUP-TFII activity: up to 100 μM
SMILES: COc1ccc(O)c2ccccc12 [4-methoxynaphthol compound, 4-methoxynaphthol]
